Results as given in patent US7632928B2, “Method and antibodies for detecting nitrofuran” (Charm Sciences, Inc, priority 2004, dated 2009).

What was measured:
[1] = system: antibody raised against FZDM-Glut-Thyroglobulin immunogen; assay: AOZ ELISA competitive binding assay; conditions: positive controls at input levels 0.1 to 10 ppb; PEB vs PBS buffer; plate coated with N-linked FZDM-BSA
Excerpt: An AOZ ELISA competitive binding assay is shown below, where the N-linked direct conjugate of FZDM-BSA is used as a binding partner conjugate coated on the ELISA plate, and the N-linked direct conjugate of FZDM-alpha-amylase is used as the positive control of protein-bound FZDM in comparison with the FZDM positive control. The antibody used in the assay was raised against the prior art FZDM-Glut-Thyroglobulin immunogen. Assays were run in two different buffers comparing PEB (Protein Elution Buffer) vs. PBS (Phosphate buffer saline).

melting point	dose-responses (% inhibition) [1]	Structure (SMILES)
171 to 173 °C	–	N#CC=CC(=O)/C=N/N1CC(=O)NC1=O [compound 1, 5-(2,4-Dioxoimidazolidin-1-ylimino)-4-oxo-pent-2-enenitrile]
–	varying dose-responses	N#CC=CC(=O)/C=N/N1CCOC1=O [compound 3, 5-(2-oxo-oxazolidin-3-ylimino)-4-oxo-pent-2-enenitrile]
